Laboratory results from patent US11197878B2, “Anti-inflammatory composition including novel quercetin-based compound” (AMOREPACIFIC CORPORATION, priority 2017, dated 2021).

System: skin
Test: Test for skin accumulated stimulus, HRIPT (Human repeated insult patch tests)
Format: in vivo
Design: key to skin reactivity (ICDRG criteria): −: negative (no response); ±: doubtful or slight erythema, etc.; +: weak reaction (which is accompanied with no phlyctenule), erythema, papule; ++: severe reaction (which is accompanied with phlyctenule), erythema, papule, phlyctenule; +++: strong reaction, bullae reaction
Conditions: for Number of examinees who exhibited ±, +, or ++ reactivity, 1st: 1st patch; for Number of examinees who exhibited ±, +, or ++ reactivity, 2nd: 2nd patch; for Number of examinees who exhibited ±, +, or ++ reactivity, 3rd: 3rd patch; for Number of examinees who exhibited ±, +, or ++ reactivity, 4th: 4th patch; for Number of examinees who exhibited ±, +, or ++ reactivity, 5th: 5th patch; for Number of examinees who exhibited ±, +, or ++ reactivity, 6th: 6th patch; for Number of examinees who exhibited ±, +, or ++ reactivity, 7th: 7th patch; for Number of examinees who exhibited ±, +, or ++ reactivity, 8th: 8th patch; for average reactivity: 9 patches over 3 weeks, 15 examinees, less than 3 is considered a stable composition; for Number of examinees who exhibited ±, +, or ++ reactivity, 9th: 9th patch
Procedure: HRIPT (Human repeated insult patch tests) was conducted in order to identify skin accumulated stimulus of quercetin3-O-[3-O″-(E)-p-coumaroyl][β-D-glucopyranosyl-(1→3)-O-α-L-rhamnopyranosyl-(1→6)-O-β-D-glucopyranoside] and quercetin3-O-[3-O″-(E)-p-coumaroyl][α-L-rhamnopyranosyl-(1→6)-O-β-D-glucopyranoside] and to calculate the concentration range that can be used in skin. Specifically, 15 healthy adult examinees were randomly selected, and test compositions in which the compounds were respectively comprised in an amount of 0.5 wt. %, 1 wt. %, and 3 wt. % (the compositions for skin, comprising an emulsifying agent, a stabilizer, purified water, etc. in addition to the compounds) were dropped in the amount of 20 μl per chamber (IQ chamber, Epitest Ltd, Finland), and patched on the right site of the upper back of the examinees, and then, after 24 hours, the patch was replaced with a new patch. A total of 9 patches were conducted, three times a week for total 3 weeks, in such manner, the skin reactions before and after patch were examined every time, and the skin reactions until 48 hours after removing the final patch were observed, and the average reactivity was observed. The skin reaction was determined according to the criteria of International Contact Dermatitis Research Group (ICDRG). In the above table, “New Material 31” refers to quercetin3-O-[3-O″-(E)-p-coumaroyl][β-D-glucopyranosyl-(1→3)-O-α-L-rhamnopyranosyl-(1→6)-O-β-D-glucopyranoside], and “New Material 32” refers to quercetin3-O-[3-O″-(E)-p-coumaroyl][α-L-rhamnopyranosyl-(1→6)-O-β-D-glucopyranoside].

Q: What does the source list for `C[C@@H]1O[C@@H](OC[C@H]2O[C@@H](Oc3c(-c4ccc(O)c(O)c4)oc4cc(O)cc(O)c4c3=O)[C@H](O)[C@@H](OC(=O)/C=C/c3ccc(O)cc3)[C@@H]2O)[C@H](O)[C@H](O[C@@H]2O[C@H](CO)[C@@H](O)[C@H](O)[C@H]2O)[C@H]1O` [New Material 31, quercetin3-O-[3-O″-(E)-p-coumaroyl][β-D-glucopyranosyl-(1→3)-O-α-L-rhamnopyranosyl-(1→6)-O-β-D-glucopyranoside]]?
A: Number of examinees who exhibited ±, +, or ++ reactivity, 1st (0.5 wt. %, line 1 of 3 (±)): 0 number; Number of examinees who exhibited ±, +, or ++ reactivity, 1st (0.5 wt. %, line 2 of 3 (+)): 0 number; Number of examinees who exhibited ±, +, or ++ reactivity, 1st (0.5 wt. %, line 3 of 3 (++)): 0 number; Number of examinees who exhibited ±, +, or ++ reactivity, 2nd (0.5 wt. %, line 1 of 3 (±)): 0 number; Number of examinees who exhibited ±, +, or ++ reactivity, 2nd (0.5 wt. %, line 2 of 3 (+)): 0 number; Number of examinees who exhibited ±, +, or ++ reactivity, 2nd (0.5 wt. %, line 3 of 3 (++)): 0 number; Number of examinees who exhibited ±, +, or ++ reactivity, 3rd (0.5 wt. %, line 1 of 3 (±)): 0 number; Number of examinees who exhibited ±, +, or ++ reactivity, 3rd (0.5 wt. %, line 2 of 3 (+)): 0 number; Number of examinees who exhibited ±, +, or ++ reactivity, 3rd (0.5 wt. %, line 3 of 3 (++)): 0 number; Number of examinees who exhibited ±, +, or ++ reactivity, 4th (0.5 wt. %, line 1 of 3 (±)): 0 number; Number of examinees who exhibited ±, +, or ++ reactivity, 4th (0.5 wt. %, line 2 of 3 (+)): 0 number; Number of examinees who exhibited ±, +, or ++ reactivity, 4th (0.5 wt. %, line 3 of 3 (++)): 0 number; Number of examinees who exhibited ±, +, or ++ reactivity, 5th (0.5 wt. %, line 1 of 3 (±)): 0 number; Number of examinees who exhibited ±, +, or ++ reactivity, 5th (0.5 wt. %, line 2 of 3 (+)): 0 number; Number of examinees who exhibited ±, +, or ++ reactivity, 5th (0.5 wt. %, line 3 of 3 (++)): 0 number; Number of examinees who exhibited ±, +, or ++ reactivity, 6th (0.5 wt. %, line 1 of 3 (±)): 0 number; Number of examinees who exhibited ±, +, or ++ reactivity, 6th (0.5 wt. %, line 2 of 3 (+)): 0 number; Number of examinees who exhibited ±, +, or ++ reactivity, 6th (0.5 wt. %, line 3 of 3 (++)): 0 number; Number of examinees who exhibited ±, +, or ++ reactivity, 7th (0.5 wt. %, line 1 of 3 (±)): 0 number; Number of examinees who exhibited ±, +, or ++ reactivity, 7th (0.5 wt. %, line 2 of 3 (+)): 0 number; Number of examinees who exhibited ±, +, or ++ reactivity, 7th (0.5 wt. %, line 3 of 3 (++)): 0 number; Number of examinees who exhibited ±, +, or ++ reactivity, 8th (0.5 wt. %, line 1 of 3 (±)): 0 number; Number of examinees who exhibited ±, +, or ++ reactivity, 8th (0.5 wt. %, line 2 of 3 (+)): 0 number; Number of examinees who exhibited ±, +, or ++ reactivity, 8th (0.5 wt. %, line 3 of 3 (++)): 0 number; average reactivity (0.5 wt. %): 0; Number of examinees who exhibited ±, +, or ++ reactivity, 9th (0.5 wt. %, line 1 of 3 (±)): 0 number; Number of examinees who exhibited ±, +, or ++ reactivity, 9th (0.5 wt. %, line 2 of 3 (+)): 0 number; Number of examinees who exhibited ±, +, or ++ reactivity, 9th (0.5 wt. %, line 3 of 3 (++)): 0 number; Number of examinees who exhibited ±, +, or ++ reactivity, 1st (1 wt. %, line 1 of 3 (±)): 0 number; Number of examinees who exhibited ±, +, or ++ reactivity, 1st (1 wt. %, line 2 of 3 (+)): 0 number; Number of examinees who exhibited ±, +, or ++ reactivity, 1st (1 wt. %, line 3 of 3 (++)): 0 number; Number of examinees who exhibited ±, +, or ++ reactivity, 2nd (1 wt. %, line 1 of 3 (±)): 0 number; Number of examinees who exhibited ±, +, or ++ reactivity, 2nd (1 wt. %, line 2 of 3 (+)): 0 number; Number of examinees who exhibited ±, +, or ++ reactivity, 2nd (1 wt. %, line 3 of 3 (++)): 0 number; Number of examinees who exhibited ±, +, or ++ reactivity, 3rd (1 wt. %, line 1 of 3 (±)): 0 number; Number of examinees who exhibited ±, +, or ++ reactivity, 3rd (1 wt. %, line 2 of 3 (+)): 0 number; Number of examinees who exhibited ±, +, or ++ reactivity, 3rd (1 wt. %, line 3 of 3 (++)): 0 number; Number of examinees who exhibited ±, +, or ++ reactivity, 4th (1 wt. %, line 1 of 3 (±)): 0 number; Number of examinees who exhibited ±, +, or ++ reactivity, 4th (1 wt. %, line 2 of 3 (+)): 0 number; Number of examinees who exhibited ±, +, or ++ reactivity, 4th (1 wt. %, line 3 of 3 (++)): 0 number; Number of examinees who exhibited ±, +, or ++ reactivity, 5th (1 wt. %, line 1 of 3 (±)): 0 number; Number of examinees who exhibited ±, +, or ++ reactivity, 5th (1 wt. %, line 2 of 3 (+)): 0 number; Number of examinees who exhibited ±, +, or ++ reactivity, 5th (1 wt. %, line 3 of 3 (++)): 0 number; Number of examinees who exhibited ±, +, or ++ reactivity, 6th (1 wt. %, line 1 of 3 (±)): 0 number; Number of examinees who exhibited ±, +, or ++ reactivity, 6th (1 wt. %, line 2 of 3 (+)): 0 number; Number of examinees who exhibited ±, +, or ++ reactivity, 6th (1 wt. %, line 3 of 3 (++)): 0 number; Number of examinees who exhibited ±, +, or ++ reactivity, 7th (1 wt. %, line 1 of 3 (±)): 0 number; Number of examinees who exhibited ±, +, or ++ reactivity, 7th (1 wt. %, line 2 of 3 (+)): 0 number; Number of examinees who exhibited ±, +, or ++ reactivity, 7th (1 wt. %, line 3 of 3 (++)): 0 number; Number of examinees who exhibited ±, +, or ++ reactivity, 8th (1 wt. %, line 1 of 3 (±)): 0 number; Number of examinees who exhibited ±, +, or ++ reactivity, 8th (1 wt. %, line 2 of 3 (+)): 0 number; Number of examinees who exhibited ±, +, or ++ reactivity, 8th (1 wt. %, line 3 of 3 (++)): 0 number; average reactivity (1 wt. %): 0; Number of examinees who exhibited ±, +, or ++ reactivity, 9th (1 wt. %, line 1 of 3 (±)): 0 number; Number of examinees who exhibited ±, +, or ++ reactivity, 9th (1 wt. %, line 2 of 3 (+)): 0 number; Number of examinees who exhibited ±, +, or ++ reactivity, 9th (1 wt. %, line 3 of 3 (++)): 0 number; Number of examinees who exhibited ±, +, or ++ reactivity, 1st (3 wt. %, line 1 of 3 (±)): 0 number; Number of examinees who exhibited ±, +, or ++ reactivity, 1st (3 wt. %, line 2 of 3 (+)): 0 number; Number of examinees who exhibited ±, +, or ++ reactivity, 1st (3 wt. %, line 3 of 3 (++)): 0 number; Number of examinees who exhibited ±, +, or ++ reactivity, 2nd (3 wt. %, line 1 of 3 (±)): 0 number; Number of examinees who exhibited ±, +, or ++ reactivity, 2nd (3 wt. %, line 2 of 3 (+)): 0 number; Number of examinees who exhibited ±, +, or ++ reactivity, 2nd (3 wt. %, line 3 of 3 (++)): 0 number; Number of examinees who exhibited ±, +, or ++ reactivity, 3rd (3 wt. %, line 1 of 3 (±)): 0 number; Number of examinees who exhibited ±, +, or ++ reactivity, 3rd (3 wt. %, line 2 of 3 (+)): 0 number; Number of examinees who exhibited ±, +, or ++ reactivity, 3rd (3 wt. %, line 3 of 3 (++)): 0 number; Number of examinees who exhibited ±, +, or ++ reactivity, 4th (3 wt. %, line 1 of 3 (±)): 0 number; Number of examinees who exhibited ±, +, or ++ reactivity, 4th (3 wt. %, line 2 of 3 (+)): 0 number; Number of examinees who exhibited ±, +, or ++ reactivity, 4th (3 wt. %, line 3 of 3 (++)): 0 number; Number of examinees who exhibited ±, +, or ++ reactivity, 5th (3 wt. %, line 1 of 3 (±)): 0 number; Number of examinees who exhibited ±, +, or ++ reactivity, 5th (3 wt. %, line 2 of 3 (+)): 0 number; Number of examinees who exhibited ±, +, or ++ reactivity, 5th (3 wt. %, line 3 of 3 (++)): 0 number; Number of examinees who exhibited ±, +, or ++ reactivity, 6th (3 wt. %, line 1 of 3 (±)): 0 number; Number of examinees who exhibited ±, +, or ++ reactivity, 6th (3 wt. %, line 2 of 3 (+)): 0 number; Number of examinees who exhibited ±, +, or ++ reactivity, 6th (3 wt. %, line 3 of 3 (++)): 0 number; Number of examinees who exhibited ±, +, or ++ reactivity, 7th (3 wt. %, line 1 of 3 (±)): 0 number; Number of examinees who exhibited ±, +, or ++ reactivity, 7th (3 wt. %, line 2 of 3 (+)): 0 number; Number of examinees who exhibited ±, +, or ++ reactivity, 7th (3 wt. %, line 3 of 3 (++)): 0 number; Number of examinees who exhibited ±, +, or ++ reactivity, 8th (3 wt. %, line 1 of 3 (±)): 0 number; Number of examinees who exhibited ±, +, or ++ reactivity, 8th (3 wt. %, line 2 of 3 (+)): 0 number; Number of examinees who exhibited ±, +, or ++ reactivity, 8th (3 wt. %, line 3 of 3 (++)): 0 number; average reactivity (3 wt. %): 0; Number of examinees who exhibited ±, +, or ++ reactivity, 9th (3 wt. %, line 1 of 3 (±)): 0 number; Number of examinees who exhibited ±, +, or ++ reactivity, 9th (3 wt. %, line 2 of 3 (+)): 0 number; Number of examinees who exhibited ±, +, or ++ reactivity, 9th (3 wt. %, line 3 of 3 (++)): 0 number; skin reactivity (ICDRG criteria) (within the range of contents 0.5 wt. %, 1 wt. %, 3 wt. %): −
